# According to the supplement of paper PMC13380429:
# Key:
# Conditions in all cases: 72 h
# Caco-2 [1] = assay: cell viability relative to DMSO; higher = less toxic
# Calu-3 [2] = assay: as above
# HepG2 [3] = assay: as above
# U2OS [4] = assay: as above
# Vero E6 [5] = assay: as above
# Caco-2 [6] = assay: relative viability EC50 (midpoint between 100% and the lowest measured viability); higher = less toxic
# Calu-3 [7] = assay: as above
# U2OS [8] = assay: as above
# Vero E6 [9] = assay: as above
# Caco-2 [10] = assay: drug sensitivity score (DSS) for viability; higher = more toxic; extreme values may be limits of the assay
# Calu-3 [11] = assay: as above
# HepG2 [12] = assay: as above
# U2OS [13] = assay: as above
# Vero E6 [14] = assay: as above
# HepG2 [15] = assay: relative viability EC50 (midpoint between 100% and the lowest measured viability); higher = less toxic
SMILES,cell viability (Caco-2 [1]; 1 nM) [%],cell viability (Caco-2 [1]; 10 nM) [%],cell viability (Caco-2 [1]; 100 nM) [%],cell viability (Caco-2 [1]; 1000 nM) [%],cell viability (Caco-2 [1]; 10000 nM) [%],cell viability (Calu-3 [2]; 1 nM) [%],cell viability (Calu-3 [2]; 10 nM) [%],cell viability (Calu-3 [2]; 100 nM) [%],cell viability (Calu-3 [2]; 1000 nM) [%],cell viability (Calu-3 [2]; 10000 nM) [%],cell viability (HepG2 [3]; 1 nM) [%],cell viability (HepG2 [3]; 10 nM) [%],cell viability (HepG2 [3]; 100 nM) [%],cell viability (HepG2 [3]; 1000 nM) [%],cell viability (HepG2 [3]; 10000 nM) [%],cell viability (U2OS [4]; 1 nM) [%],cell viability (U2OS [4]; 10 nM) [%],cell viability (U2OS [4]; 100 nM) [%],cell viability (U2OS [4]; 1000 nM) [%],cell viability (U2OS [4]; 10000 nM) [%],cell viability (Vero E6 [5]; 1 nM) [%],cell viability (Vero E6 [5]; 10 nM) [%],cell viability (Vero E6 [5]; 100 nM) [%],cell viability (Vero E6 [5]; 1000 nM) [%],cell viability (Vero E6 [5]; 10000 nM) [%],relative viability EC50 (Caco-2 [6]) [µM],relative viability EC50 (Calu-3 [7]) [µM],relative viability EC50 (U2OS [8]) [µM],relative viability EC50 (Vero E6 [9]) [µM],drug sensitivity score (Caco-2 [10]),drug sensitivity score (Calu-3 [11]),drug sensitivity score (HepG2 [12]),drug sensitivity score (U2OS [13]),drug sensitivity score (Vero E6 [14]),relative viability EC50 (HepG2 [15]) [µM]
CN(C)c1nc(N)c(C(=O)Nc2cccnc2)nc1Cl [ACDPP],87.4,98.7,93,89.2,87.9,100,96.8,104,96.4,94.6,104,105,103,80.9,58.9,93.6,98,97.7,98.5,105,102,95.3,98.3,95.1,99.9,> 10,> 10,> 10,> 10,0,0,4.5,0,0,–
C=CC(=O)Nc1cccc(Oc2nc(Nc3ccc(N4CCN(C)CC4)cc3)nc3ccsc23)c1 [olmutinib],99.2,98.3,90.9,83.5,69,110,105,89,68.4,14.8,95,93.5,100,99.6,51,100,101,96.6,92.7,59.4,100,98.7,96.7,92.2,5.1,–,1.35,–,2.49,3.2,8.3,2.6,3.2,6.5,–
CC[C@H]1OC(=O)C[C@@H](O)[C@H](C)[C@@H](O[C@@H]2O[C@H](C)C[C@H](N(C)C)[C@H]2O)[C@@H](CC=O)C[C@@H](C)C(=O)/C=C/[C@]2(C)O[C@H]2[C@@H]1C [rosamicin],94.6,102,101,100,71.5,101,84.5,101,107,87.2,87,106,98.4,103,28.9,100,94.2,98.8,99.4,37.1,94.7,102,92.9,97,90.9,–,> 10,3.09,> 10,1.2,0,3.7,3.5,0,3.41
CN(C)C(=O)c1ccc(S(=O)(=O)c2ccc(NC(=O)[C@@](C)(O)C(F)(F)F)c(Cl)c2)cc1 [AZD7545],103,96.3,96.7,96.1,79.6,99.6,107,85.2,94,102,94.3,99.1,95,99.1,61,94.5,104,91.9,103,84.9,101,99,99.7,89,90.9,> 10,> 10,> 10,> 10,1.2,0,2,0.1,0.2,–
O=C1Nc2ccc(I)cc2C1=Cc1cc(Br)c(O)c(Br)c1 [GW-5074],95.6,97.5,108,95,88.3,95.1,94.2,104,90.9,114,90.3,98.5,97.3,97.5,68.9,99.3,97.3,100,96.1,95.5,97,97.3,95.8,96,108,> 10,> 10,> 10,> 10,0.2,0,1.8,0,0,–
O=c1c2ccccc2[se]n1-c1ccccc1 [Ebselen],102,89.2,104,91.6,92.2,104,91.8,107,83.1,87.7,113,98.2,103,100,106,103,95.8,105,98.9,74.5,97.6,100,105,92.8,93.7,> 10,> 10,–,> 10,0,1.7,0,1.1,0,> 10
COc1cc(C[C@@H](CO)[C@H](CO)Cc2ccc(O)c(OC)c2)ccc1O [secoisolariciresinol-(-)],94.7,102,87.6,93,94.7,98.7,102,107,91.9,92.4,–,–,–,–,–,100,99.1,98.7,104,93.8,113,110,98.6,97.3,99.3,> 10,> 10,> 10,> 10,0,0,–,0,0,–
"CCCn1c(=O)c2nc(-c3ccccc3)[nH]c2n(CCC)c1=O [1,3-dipropyl-8-phenylxanthine]",91.1,96.4,90.3,102,81.9,102,102,101,102,89.4,108,99.8,103,90.3,69.5,98.1,95.4,90.1,97.1,90.5,96.6,95.4,94,95.7,94.9,> 10,> 10,> 10,> 10,0.4,0,2.7,0,0,–
Nc1nc(Cl)nc2c1ncn2[C@@H]1O[C@H](CO)[C@@H](O)[C@H]1O [2-chloroadenosine],–,–,–,–,–,110,103,98.8,113,84.5,99.9,101,104,104,81.8,101,96.1,102,107,101,93.4,102,103,102,93.7,–,> 10,> 10,> 10,–,0.1,0.3,0,0,> 10
Cc1cc2cc3c(C)cc(=O)oc3c(C)c2o1 [trioxsalen],111,99.6,91.3,92.4,80.5,105,96.3,106,120,108,104,88.8,94.7,86.1,65.8,103,105,101,106,99.6,97.4,96,99.5,97.5,96.3,> 10,> 10,> 10,> 10,1,0,2.9,0,0,–
Nc1nc2c(ncn2COCCO)c(=O)[nH]1 [acyclovir],–,–,–,–,–,95.3,101,102,106,119,96.3,92,95.1,94.7,96.3,91.6,101,94.7,99.7,104,110,92.7,98.3,98,101,–,> 10,> 10,> 10,–,0,0,0,0,> 10
O=C(Nc1ccc(S(=O)(=O)C(F)(F)F)cc1)C1=CCN(c2ncccc2C(F)(F)F)CC1,97.3,98.4,90.7,97.4,62.4,96.2,106,99.6,101,79.9,107,87.9,104,96.2,38.6,96.1,101,93.2,101,84.9,99.6,91.7,91.3,88.9,94.7,–,> 10,> 10,> 10,2.2,0.5,3.9,0.2,0.7,2.67
CCc1c(C(=O)C(N)=O)c2c(OCC(=O)O)cccc2n1Cc1ccccc1 [varespladib],106,90.1,94.4,93,106,104,99.2,91.2,110,101,93.3,105,96.2,101,97.7,–,–,–,–,–,104,102,107,103,99.5,> 10,> 10,–,> 10,0,0,0,–,0,> 10
O=C(NO)C1(CS(=O)(=O)c2ccc(Oc3ccc(Cl)cc3)cc2)CCOCC1 [CTS-1027],104,109,105,98.8,74.3,95,101,93.1,104,98.2,97.7,88.7,104,83.5,96.3,99.7,105,100,106,88.1,101,104,99.4,95,94.5,–,> 10,> 10,> 10,1.2,0,0,0,0,> 10
CCc1ccc2c(-c3cccc(Cl)c3)nc(=O)n(CC)c2n1 [YM-976],104,95.6,104,109,97.1,109,98.7,101,98.3,108,95.9,104,97,103,86.3,–,–,–,–,–,96.6,97.3,92.3,90.1,91.9,> 10,> 10,–,> 10,0,0,0.1,–,0,> 10
